The values that follow come from PubChem BioAssay (NCI).

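Growth conditions: 96-well plates. Treatment: test compound, 48 hours, 5 concentrations. Analysis: linear interpolation between bracketing concentrations; unreached endpoints set to highest concentration. TGI: total growth inhibition.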

Some test systems named below: ACHN renal; CAKI-1 renal; EKVX NSCLC; HCC-2998 colon; HL-60(TB) leukemia; HT29 colon; K-562 leukemia; NCI-H226 lung; NCI-H23 lung; NCI-H522 lung; OVCAR-5 ovarian; OVCAR-8 ovarian; RXF 393 renal; SK-MEL-28 melanoma; SNB-75 CNS; TK-10 renal; U251 CNS; NCI/ADR-RES ovarian; PC-3 prostate.
Common to all, as to test: NCI-60 cell line screen, 48 h

With `COc1cc2c(c(OC)c1OC)[C@@H]1CCCCC[C@@H]1CCC2=O`, the TGI is above 100 µM in the assay on ACHN renal; above 100 µM in the assay on CAKI-1 renal; above 100 µM in the assay on EKVX NSCLC; above 100 µM with HCC-2998 colon; above 63.4 µM in the assay on HL-60(TB) leukemia; above 100 µM in the assay with HT29 colon. Further, the TGI was above 72.5 µM in the assay with K-562 leukemia; above 100 µM in the assay with NCI-H226 lung; above 100 µM in the assay on NCI-H23 lung; above 100 µM in the assay on NCI-H522 lung; above 100 µM in the assay on OVCAR-5 ovarian; above 100 µM in the assay with OVCAR-8 ovarian. Further, the TGI in the assay on RXF 393 renal, in the assay on SK-MEL-28 melanoma, in the assay on SNB-75 CNS, in the assay on TK-10 renal and in the assay on U251 CNS was above 100 µM each time.

Take `COc1c(O)ccc(/C=N/NC(=S)NCOCCOC(C)=O)c1OC`: the TGI in the assay on ACHN renal, with EKVX NSCLC, in the assay on HCC-2998 colon, with HL-60(TB) leukemia, in the assay on HT29 colon and in the assay with K-562 leukemia was above 100 µM throughout. In addition, the TGI in the assay with NCI-H226 lung, in the assay on NCI-H23 lung, with NCI-H522 lung, with OVCAR-5 ovarian, in the assay on OVCAR-8 ovarian and in the assay with RXF 393 renal was above 100 µM each time. Further, the TGI in the assay on SK-MEL-28 melanoma, in the assay on SNB-75 CNS, in the assay with TK-10 renal and in the assay on U251 CNS was above 100 µM throughout.

Regarding `CC[n+]1c(/C=C/c2cc(C(=O)OC)n3c2sc2ccccc23)sc2ccccc21`, the TGI in the assay on ACHN renal was 36.2 µM; in the assay with EKVX NSCLC, 38.9 µM; in the assay on HCC-2998 colon it was 27.8 µM; with HL-60(TB) leukemia, 98.4 µM; with HT29 colon, 33 µM; in the assay on K-562 leukemia it was 31.2 µM. The TGI in the assay on NCI-H226 lung is 45.1 µM; with NCI-H522 lung, 30.7 µM; in the assay on OVCAR-5 ovarian it was 37.3 µM; in the assay on SNB-75 CNS, 32.5 µM.

Turning to `COc1cc(Br)c(/C=N/N=C(\N)NO)cc1OC`, the TGI with ACHN renal is 50.6 µM; in the assay on CAKI-1 renal it was 79 µM; in the assay with EKVX NSCLC, above 100 µM; in the assay on HCC-2998 colon, 26.3 µM; with HL-60(TB) leukemia, 52.6 µM; in the assay with HT29 colon, 86.3 µM. In addition, the TGI was 47.3 µM in the assay with K-562 leukemia; 31.5 µM in the assay with NCI-H226 lung; 69 µM in the assay with NCI-H23 lung; 37.5 µM in the assay on NCI-H522 lung; above 100 µM in the assay on OVCAR-5 ovarian; 76 µM in the assay with OVCAR-8 ovarian. The TGI in the assay on RXF 393 renal is 54.4 µM; in the assay on SK-MEL-28 melanoma, above 100 µM; in the assay with SNB-75 CNS it was 65.9 µM; in the assay on TK-10 renal, above 100 µM; with U251 CNS, above 100 µM.

For `O=C(NC1C(=O)NC(CCc2ccccc2)NC1=O)OCc1ccccc1` (centres undefined), the TGI in the assay on ACHN renal, with CAKI-1 renal, in the assay with EKVX NSCLC, with HL-60(TB) leukemia, in the assay on HT29 colon and in the assay with K-562 leukemia was above 100 µM in each case. In addition, the TGI in the assay with NCI-H226 lung, in the assay on NCI-H23 lung, with NCI-H522 lung, in the assay with NCI/ADR-RES ovarian, in the assay on OVCAR-5 ovarian and in the assay with OVCAR-8 ovarian was above 100 µM each time. Also, the TGI in the assay on PC-3 prostate, in the assay on RXF 393 renal, with SK-MEL-28 melanoma, in the assay with SNB-75 CNS, in the assay on TK-10 renal and in the assay on U251 CNS was above 100 µM in each case.

Consider `Cc1nsc2cc(Cl)n(C)c(=O)c12`, for which the TGI in the assay with ACHN renal, in the assay with CAKI-1 renal, in the assay with EKVX NSCLC, in the assay on HCC-2998 colon, in the assay on HL-60(TB) leukemia and with HT29 colon was above 100 µM each time. Besides, the TGI with K-562 leukemia is above 100 µM; in the assay on NCI-H226 lung, above 100 µM; in the assay on NCI-H23 lung, above 100 µM; in the assay with NCI-H522 lung it was 69.3 µM; with OVCAR-5 ovarian, above 100 µM; in the assay with OVCAR-8 ovarian, above 100 µM. Also, the TGI in the assay on RXF 393 renal, in the assay on SK-MEL-28 melanoma, in the assay on SNB-75 CNS, in the assay on TK-10 renal and with U251 CNS was above 100 µM in each case.

Consider `C=Cc1c(-c2ccccc2)cnc2[nH]c3ccccc3c12`, for which the TGI in the assay with ACHN renal, in the assay on CAKI-1 renal, in the assay with EKVX NSCLC, with HCC-2998 colon, in the assay with HL-60(TB) leukemia and in the assay with HT29 colon was above 50 µM each time. The TGI in the assay with K-562 leukemia, with NCI-H23 lung, with NCI-H522 lung, in the assay on OVCAR-5 ovarian, in the assay on OVCAR-8 ovarian and in the assay on RXF 393 renal was above 50 µM each time. Further, the TGI with SK-MEL-28 melanoma was above 50 µM; in the assay on SNB-75 CNS it was 46 µM; in the assay with TK-10 renal, above 50 µM; with U251 CNS, above 50 µM.

For `COc1cc(C(C)c2cc3c(cc2OCCCCCOc2cc4c(cc2C(C)c2cc(OC)c(OC)c(OC)c2)OCO4)OCO3)cc(OC)c1OC` (centres undefined), the TGI in the assay with ACHN renal, with CAKI-1 renal, in the assay with EKVX NSCLC, in the assay with HCC-2998 colon, in the assay on HL-60(TB) leukemia and in the assay with HT29 colon was above 100 µM each time. Further, the TGI with K-562 leukemia, with NCI-H226 lung, in the assay with NCI-H23 lung, with NCI-H522 lung, in the assay with OVCAR-5 ovarian and with OVCAR-8 ovarian was above 100 µM in each case. The TGI in the assay on RXF 393 renal, in the assay on SK-MEL-28 melanoma, in the assay on SNB-75 CNS and in the assay on U251 CNS was above 100 µM in each case.

As to `CCOC(=O)/C(=C\n1c(=O)sc2ccccc21)C(=O)c1ccccc1`, the TGI in the assay with ACHN renal was above 100 µM; in the assay on CAKI-1 renal, 64.7 µM; with EKVX NSCLC, above 100 µM; with HCC-2998 colon, above 100 µM; with HL-60(TB) leukemia it was above 100 µM; with HT29 colon, above 100 µM. Moreover, the TGI in the assay on K-562 leukemia, in the assay with NCI-H226 lung, in the assay on NCI-H23 lung, with NCI-H522 lung, in the assay with NCI/ADR-RES ovarian and in the assay on OVCAR-5 ovarian was above 100 µM each time. Further, the TGI with OVCAR-8 ovarian, in the assay on PC-3 prostate, in the assay with RXF 393 renal, in the assay on SK-MEL-28 melanoma, in the assay on SNB-75 CNS and with U251 CNS was above 100 µM each time.

Consider `Nc1ccc(C(=O)NN2C(=O)C(Cl)C2c2ccc(O)cc2)cc1` (centres undefined), for which the TGI with ACHN renal is above 100 µM; in the assay on CAKI-1 renal, 51.3 µM; with EKVX NSCLC it was 36.1 µM; in the assay on HL-60(TB) leukemia, 33.7 µM; in the assay with HT29 colon it was 45.1 µM; in the assay with K-562 leukemia, 49.5 µM. In addition, the TGI stood at 57.3 µM with NCI-H226 lung; 35.2 µM in the assay on NCI-H23 lung; 24.4 µM in the assay on NCI-H522 lung; 46.6 µM with OVCAR-5 ovarian; 68.8 µM in the assay with OVCAR-8 ovarian; 40.7 µM in the assay on SK-MEL-28 melanoma. The TGI in the assay with SNB-75 CNS is 70.4 µM; in the assay with TK-10 renal, above 100 µM; in the assay with U251 CNS it was 29.6 µM.

Consider `O=C(O)C(Cc1ccc(O)cc1)N=Cc1nc(-c2ccccc2)oc1O` (centres undefined), for which the TGI with ACHN renal, in the assay on CAKI-1 renal, in the assay with EKVX NSCLC, with HCC-2998 colon, in the assay with HL-60(TB) leukemia and with HT29 colon was above 100 µM throughout. Besides, the TGI in the assay on K-562 leukemia, in the assay on NCI-H226 lung, in the assay with NCI-H23 lung, in the assay with NCI-H522 lung, with OVCAR-5 ovarian and in the assay on OVCAR-8 ovarian was above 100 µM throughout. For the same compound, the TGI in the assay on RXF 393 renal, in the assay on SK-MEL-28 melanoma, in the assay with SNB-75 CNS, with TK-10 renal and in the assay with U251 CNS was above 100 µM in each case.

For the compound `CC(=O)NC1=C(NCCO)C(=O)c2ccccc2C1=O`, the TGI in the assay with ACHN renal, in the assay with EKVX NSCLC, with HCC-2998 colon, with HL-60(TB) leukemia, in the assay on HT29 colon and in the assay with K-562 leukemia was above 50 µM throughout. The TGI in the assay with NCI-H226 lung, with NCI-H23 lung, in the assay on NCI-H522 lung, in the assay with OVCAR-8 ovarian, in the assay on RXF 393 renal and with SK-MEL-28 melanoma was above 50 µM throughout. Besides, the TGI in the assay with SNB-75 CNS, with TK-10 renal and in the assay with U251 CNS was above 50 µM in each case.

Turning to `O=C(CC(=O)n1nc(-c2ccccc2)c(N=Nc2ccc([N+](=O)[O-])cc2)c1-c1ccccc1)Nc1ccc(Cl)cc1`, the TGI was 19.2 µM in the assay on ACHN renal; 99.3 µM with CAKI-1 renal; above 100 µM in the assay with EKVX NSCLC; 91.4 µM in the assay on HCC-2998 colon; 70.4 µM in the assay on HL-60(TB) leukemia; 58.5 µM in the assay on HT29 colon. For the same compound, the TGI in the assay on K-562 leukemia is 17.8 µM; in the assay on NCI-H226 lung, 70 µM; with NCI-H23 lung, above 100 µM; in the assay with NCI-H522 lung, above 100 µM; in the assay with OVCAR-5 ovarian, above 100 µM; in the assay with OVCAR-8 ovarian, above 100 µM. Further, the TGI with RXF 393 renal is 51.3 µM; with SK-MEL-28 melanoma, 80.8 µM; in the assay on SNB-75 CNS it was above 100 µM; with TK-10 renal it was 69.1 µM; with U251 CNS it was 63.1 µM.
